Results taken from article PMC6278284, “Synthesis of Jacaranone-Derived Nitrogenous Cyclohexadienones and Their Antiproliferative and Antiprotozoal Activities” (Molecules, 2018).
Values joined by “and” are separate entries in the source; they are usually repeats but may differ in a detail not shown here. Equal entries are not always repeated. Where two headings read alike, the source gives them in different places.

How the values were obtained:
[1] = tested on: T. brucei rhodesiense, strain STIB900 trypomastigote forms; experiment: In vitro growth inhibition assay of Trypanosoma brucei rhodesiense (Alamar Blue); format: cell-based; settings: for IC50: 72 h, strain STIB900, trypomastigote forms, read-out: T.b.rhod. IC50; for SI (IC50 in L6 cells/IC50 T. b. rhodesiense): ratio IC50 L6 / IC50 T. b. rhodesiense STIB900
Method: Trypanosoma brucei rhodesiense, STIB 900 strain, and the standard drug, melarsoprol, were used for the assay. Minimum Essential Medium (50 μL) supplemented with 25 mM HEPES, 1g/L additional glucose, 1% MEM non-essential amino acids (100×), 0.2 mM 2-mercaptoethanol, 1 mM Na-pyruvate, and 15% heat-inactivated horse serum was added to each well of a 96-well microtiter plate. Serial drug dilutions of 11 three-fold dilution steps covering a range from 100 to 0.002 μg/mL were prepared. Then, 4 × 10^3 bloodstream forms of T. b. rhodesiense (STIB 900) in 50 μL were added to each well and the plate was incubated at 37 °C under a 5% CO2 atmosphere for 72 h. 10 μL Alamar Blue (resazurin, 12.5 mg in 100 mL double-distilled water) was then added to each well and incubation continued for a further 2–4 h. Then, the plates were read with a Spectramax Gemini XS microplate fluorometer (Molecular Devices Cooperation, Sunnyvale, CA, USA) using an excitation wavelength of 536 nm and an emission wavelength of 588 nm. The IC50 values were calculated from the sigmoidal inhibition curves using the microplate reader software, Softmax Pro (Molecular Devices Cooperation, Sunnyvale, CA, USA). Melarsoprol was used as the control.

[2] = tested on: HCT-116 colon cancer cells; experiment: XTT viability assay, HCT-116; format: cell-based; settings: Homo sapiens, 72 h, read-out: metabolic active cells in % of control; for viability at 5 µg/mL: HCT 116, 5 µg/mL; for viability at 50 µg/mL: HCT 116, 50 µg/mL
Method: (§1) Human CCRF-CEM leukemia and MDA-MB-231 breast cancer cells lines were kept in RPMI1640 medium (Gibco®, ThermoFisher Scientific Inc., New York, NY, USA), supplemented with 2 mM L-glutamine (Gibco®), 10% heat-inactivated foetal bovine serum (FBS, Gibco®), 100 units/mL Penicillin (PAA), and 100 µg/mL Streptomycin (Gibco®) (1% Pen/Strep). HCT-116 and U251 cells were cultured in high-glucose Dulbecco’s Modified Eagle Medium (DMEM, Gibco®) containing 2 mM L-glutamine, 10% FBS, and 1% Pen/Strep. MRC-5 cells were grown in Minimum Essential Medium (MEM, Gibco®) supplemented with 2 mM L-glutamine, 10% FBS, and 1% Pen/Strep. All cells were kept in a humidified 5% CO2 atmosphere at 37 °C and passaged at 90% confluence.
(§2) A Cell Proliferation Kit II (XTT) was purchased from Sigma-Aldrich and performed as described previously and in accordance with the manufacturer’s protocol. In brief, adherent cell lines were seeded at a density of 50,000 cells/mL or 100,000 cells/mL (MRC-5) in 96 well plates (100 µL, flat bottom) and grown for 24 h before test compounds were added. Suspension cells (CCRF-CEM) were seeded at 100,000 cells/mL and test compounds were added immediately. After 72 h, XTT solution was added for another 90 min or 4 h (CCRF-CEM cells) and absorbance was measured at 490 nm with a reference wave length of 650 nm (Hidex Sense Microplate Reader 425-301, Hidex, Turku, Finland). Results are expressed as a percentage of the vehicle-treated (0.5% DMSO) control cells. Vinblastine served as the positive control (0.01 µg/mL).

[3] = tested on: MDA-MB-231 breast cancer cells; experiment: XTT viability assay, MDA-MB-231; format: cell-based; settings: Homo sapiens, 72 h, read-out: metabolic active cells in % of control; for viability at 5 µg/mL: MDA-MB-231, 5 µg/mL; for viability at 50 µg/mL: MDA-MB-231, 50 µg/mL
Method: as §1, §2

[4] = tested on: MRC-5 non-tumorigenic lung fibroblasts; experiment: XTT viability assay, MRC-5; format: cell-based, human; settings: 72 h; for viability at 5 µg/mL / viability at 50 µg/mL: Homo sapiens, MRC5, read-out: metabolic active cells in % of control; for viability at 5 µg/mL: MRC-5, 5 µg/mL; for viability at 50 µg/mL: MRC-5, 50 µg/mL; for cytotoxicity against human MRC-5 cells (in words): 5 µg/mL
Method: as §1, §2

U251 glioblastoma cells = experiment: XTT viability assay, U251; format: cell-based; settings: Homo sapiens, U-251, 72 h, read-out: metabolic active cells in % of control; for viability at 5 µg/mL: U251, 5 µg/mL; for viability at 50 µg/mL: U251, 50 µg/mL
Method: as §1, §2

[5] = tested on: human (cancer) cell lines (CCRF-CEM, MDA-MB-231, HCT-116, U251, MRC-5); experiment: XTT viability assay, statements on the whole panel of cell lines; format: cell-based; settings: 72 h; for metabolic activity, % of the control: in all (13i) or almost all (13b) cell lines; for overall cytotoxicity (in words): 50 µg/mL, panel of cell lines
Method: All synthesized dienones (13a–j, 14a, 14c, and 15) were evaluated for their cytotoxic activity against human (cancer) cell lines. To cover a range of different tumor entities, we used a panel of cancer cell lines (CCRF-CEM leukemia, MDA-MB-231 breast cancer, HCT-116 colon cancer, and U251 glioblastoma cells) as well as a non-tumorigenic human cell line (MRC-5 lung fibroblasts). All derivatives were screened for their cytotoxicity at 5 µg/mL and 50 µg/mL to cover a broad concentration range. Cells were exposed to the derivatives for 72 h. […] No clear correlation between cytotoxic and antiprotozoal effects could be drawn. […] Human CCRF-CEM leukemia and MDA-MB-231 breast cancer cells lines were kept in RPMI1640 medium (Gibco®, ThermoFisher Scientific Inc., New York, NY, USA), supplemented with 2 mM L-glutamine (Gibco®), 10% heat-inactivated foetal bovine serum (FBS, Gibco®), 100 units/mL Penicillin (PAA), and 100 µg/mL Streptomycin (Gibco®) (1% Pen/Strep). HCT-116 and U251 cells were cultured in high-glucose Dulbecco’s Modified Eagle Medium (DMEM, Gibco®) containing 2 mM L-glutamine, 10% FBS, and 1% Pen/Strep. MRC-5 cells were grown in Minimum Essential Medium (MEM, Gibco®) supplemented with 2 mM L-glutamine, 10% FBS, and 1% Pen/Strep. All cells were kept in a humidified 5% CO2 atmosphere at 37 °C and passaged at 90% confluence. A Cell Proliferation Kit II (XTT) was purchased from Sigma-Aldrich and performed as described previously and in accordance with the manufacturer’s protocol. In brief, adherent cell lines were seeded at a density of 50,000 cells/mL or 100,000 cells/mL (MRC-5) in 96 well plates (100 µL, flat bottom) and grown for 24 h before test compounds were added. Suspension cells (CCRF-CEM) were seeded at 100,000 cells/mL and test compounds were added immediately. After 72 h, XTT solution was added for another 90 min or 4 h (CCRF-CEM cells) and absorbance was measured at 490 nm with a reference wave length of 650 nm (Hidex Sense Microplate Reader 425-301, Hidex, Turku, Finland). Results are expressed as a percentage of the vehicle-treated (0.5% DMSO) control cells. Vinblastine served as the positive control (0.01 µg/mL).

CCRF-CEM leukemia cells = experiment: XTT viability assay, CCRF-CEM; format: cell-based; settings: Homo sapiens, 72 h, read-out: metabolic active cells in % of control
Method: as §1, §2

O=C1C=CC(O)(CCN2C(=O)C=CC2=O)C=C1 [Compound 13b, N-[2-(1-Hydroxy-4-oxocyclohexa-2,5-dien-1-yl)ethyl]maleimide]
IC50 ([1]; Trypanosoma brucei): 2150 nM
SI (IC50 in L6 cells/IC50 T. b. rhodesiense) [1]: 12.5
melting point: 151 to 152 °C
viability at 5 µg/mL [2]: 0.13%
viability at 50 µg/mL [2]: -0.32%
viability at 5 µg/mL [3]: 1.71%
viability at 50 µg/mL [3]: 6.61%
viability at 5 µg/mL [4]: 14.6%
viability at 50 µg/mL [4]: 0.62%
viability at 5 µg/mL (U251 glioblastoma cells): 95.2%
viability at 50 µg/mL (U251 glioblastoma cells): -0.41%
metabolic activity, % of the control ([5]; 5 µg/mL): below 40 % of the control
viability at 5 µg/mL (CCRF-CEM leukemia cells): -1.08%
viability at 50 µg/mL (CCRF-CEM leukemia cells): 3.46%

O=C1C=CC(O)(CCN2C(=O)c3cccnc3C2=O)C=C1 [Compound 13f, N-[2-(1-Hydroxy-4-oxocyclohexa-2,5-dien-1-yl)ethyl]pyridine-2,3-dicarboximide]
SI (IC50 in L6 cells/IC50 T. b. rhodesiense) [1]: 3.4
melting point: 167 to 168 °C
viability at 5 µg/mL [2]: 91%
viability at 50 µg/mL [2]: 92.8%
viability at 5 µg/mL [3]: 112%
viability at 50 µg/mL [3]: 23%
cytotoxicity against human MRC-5 cells (in words) [4]: did not show any cytotoxicity
viability at 5 µg/mL [4]: 109%
viability at 50 µg/mL [4]: 112%
viability at 5 µg/mL (U251 glioblastoma cells): 91.8%
viability at 50 µg/mL (U251 glioblastoma cells): 93.7%
overall cytotoxicity (in words) [5]: negligible
viability at 5 µg/mL (CCRF-CEM leukemia cells): 99.8%
viability at 50 µg/mL (CCRF-CEM leukemia cells): 21.7%

O=C1C=CC(O)(CCN2C(=O)COCC2=O)C=C1 [Compound 13g, N-[2-(1-Hydroxy-4-oxocyclohexa-2,5-dien-1-yl)ethyl]morpholine-3,5-dione]
IC50 ([1]; Trypanosoma brucei): > 10000 nM
SI (IC50 in L6 cells/IC50 T. b. rhodesiense) [1]: 5.1
IC50 [1]: 15300 nM
melting point: 142 to 143 °C
viability at 5 µg/mL [2]: 96%
viability at 50 µg/mL [2]: 68.1%
viability at 5 µg/mL [3]: 104%
viability at 50 µg/mL [3]: 7.63%
cytotoxicity against human MRC-5 cells (in words) [4]: did not show any cytotoxicity
viability at 5 µg/mL [4]: 116%
viability at 50 µg/mL [4]: 89.6%
viability at 5 µg/mL (U251 glioblastoma cells): 94.7%
viability at 50 µg/mL (U251 glioblastoma cells): 65.6%
overall cytotoxicity (in words) [5]: negligible
viability at 5 µg/mL (CCRF-CEM leukemia cells): 86.9%
viability at 50 µg/mL (CCRF-CEM leukemia cells): 8.05%

O=C1C=CC(O)(CCN2C(=O)C3=C(CCCC3)C2=O)C=C1 [Compound 13i, N-[2-(1-Hydroxy-4-oxocyclohexa-2,5-dien-1-yl)ethyl]-3,4,5,6-tetrahydrophthalimide]
IC50 ([1]; Trypanosoma brucei): 800 nM
viability at 5 µg/mL [2]: 1.04%
viability at 50 µg/mL [2]: 0.15%
viability at 5 µg/mL [3]: 32.4%
viability at 50 µg/mL [3]: 16.6%
viability at 5 µg/mL [4]: 5.69%
viability at 50 µg/mL [4]: 0.51%
viability at 5 µg/mL (U251 glioblastoma cells): 15.9%
viability at 50 µg/mL (U251 glioblastoma cells): 0%
metabolic activity, % of the control ([5]; 5 µg/mL): below 40 % of the control
viability at 5 µg/mL (CCRF-CEM leukemia cells): 2.26%
viability at 50 µg/mL (CCRF-CEM leukemia cells): 1.23%

O=C1C=CC(O)(CCN2C(=O)C3CC=CCC3C2=O)C=C1 (stereo not shown) [Compound 13j, N-[2-(1-Hydroxy-4-oxocyclohexa-2,5-dien-1-yl)ethyl]-1,2,3,6-tetrahydrophthalimide]
IC50 ([1]; Trypanosoma brucei): 970 nM
SI (IC50 in L6 cells/IC50 T. b. rhodesiense) [1]: 8.3
melting point: 145 to 146 °C
viability at 5 µg/mL [2]: 98.6%
viability at 50 µg/mL [2]: 63.3%
viability at 5 µg/mL [3]: 87.7%
viability at 50 µg/mL [3]: 89%
cytotoxicity against human MRC-5 cells (in words) [4]: did not show any cytotoxicity
viability at 5 µg/mL [4]: 96.1%
viability at 50 µg/mL [4]: 50.3%
viability at 5 µg/mL (U251 glioblastoma cells): 96.5%
viability at 50 µg/mL (U251 glioblastoma cells): 76.7%
overall cytotoxicity (in words) [5]: negligible
viability at 5 µg/mL (CCRF-CEM leukemia cells): 89.9%
viability at 50 µg/mL (CCRF-CEM leukemia cells): 15.4%

O=C1C=CC(O)(CCN2Cc3ccccc3C2)C=C1 [Compound 14a, N-[2-(1-Hydroxy-4-oxocyclohexa-2,5-dien-1-yl)ethyl]isoindoline]
IC50 ([1]; Trypanosoma brucei): 570 nM
SI (IC50 in L6 cells/IC50 T. b. rhodesiense) [1]: 4.9
melting point: 103 to 104 °C and 103 °C
viability at 5 µg/mL [2]: 97.3%
viability at 50 µg/mL [2]: 62.1%
viability at 5 µg/mL [3]: 95%
viability at 50 µg/mL [3]: 92.5%
cytotoxicity against human MRC-5 cells (in words) [4]: did not show any cytotoxicity
viability at 5 µg/mL [4]: 119%
viability at 50 µg/mL [4]: 95.1%
viability at 5 µg/mL (U251 glioblastoma cells): 99.5%
viability at 50 µg/mL (U251 glioblastoma cells): 95.5%
overall cytotoxicity (in words) [5]: negligible
viability at 5 µg/mL (CCRF-CEM leukemia cells): 94.6%
viability at 50 µg/mL (CCRF-CEM leukemia cells): 58%

O=C1C=CC(O)(CCN2CCOCC2)C=C1 [Compound 14c, N-[2-(1-Hydroxy-4-oxocyclohexa-2,5-dien-1-yl)ethyl]morpholine]
IC50 ([1]; Trypanosoma brucei): 270 nM
SI (IC50 in L6 cells/IC50 T. b. rhodesiense) [1]: 12.9
melting point: 98 to 99 °C
viability at 5 µg/mL [2]: 87.7%
viability at 50 µg/mL [2]: 1.58%
viability at 5 µg/mL [3]: 56.8%
viability at 50 µg/mL [3]: 4.33%
viability at 5 µg/mL [4]: 141%
viability at 50 µg/mL [4]: 0.79%
viability at 5 µg/mL (U251 glioblastoma cells): 68.3%
viability at 50 µg/mL (U251 glioblastoma cells): 1.11%
cytotoxicity against most cell lines (in words) ([5]; 5 µg/mL): only minor cytotoxicity
viability at 5 µg/mL (CCRF-CEM leukemia cells): 22.8%
viability at 50 µg/mL (CCRF-CEM leukemia cells): -0.18%
